Results as given in patent US5070207A, “Phospholipase A2 inhibitors” (American Home Products Corporation, priority 1990, dated 1991).

Tested on: PLA2 (A. piscivorus piscivorus) induced paw edema
Experiment: in vivo PLA2 murine paw edema assay
Parameters: species or system mouse (male CD-1)
Details: for ED50: Mus musculus, ip
Method: The ability of the compounds of the invention to inhibit paw edema induced by the exogenous administration of PLA2 is measured in the in vivo PLA2 murine paw edema assay.
Non-fasted, male CD-1 mice (8 weeks old; 31-36 grams) are placed in plastic boxes in groups of six. The right hind paw volume is measured using mercury plethysmography (zero time). Compounds are dosed orally (0.5 mL of 0.5% Tween-80) 1 or 3 hours prior to PLA2 injection or intravenously (0.2 mL in 0.3% dimethylsulfoxide/saline) 3 minutes prior to PLA2 injection. A solution of purified PLA2, from the diamond back cotton mouth snake (A. piscivorus piscivorus) is prepared in saline at a concentration of 6 μg/mL. Fifty (50) μL (0.3 μg) of this PLA2 solution is injected subcutaneously into the right hind paw with a plastic 1 mL plastic syringe (27 gauge, 1" needle). Paw volume of the injected paw is measured again at 10 minutes, 30 minutes and 60 minutes after PLA2 injection. Animals are euthanized with CO2 at the completion of the study.
The paw edema is calculated by subtracting the zero time volume from the volume recorded at each time period. Mean paw edema for each treatment group is then calculated and expressed as (μL±S.E.). Drug effects are expressed as a percent change from control (vehicle) values. Statistical significance is determined by a oneway analysis of variance with LSD comparison to control (p<0.05). ED50 's are determined using repression analysis.

O=C(C#CCCCOc1ccc(Cl)cc1)C(F)(F)CCc1ccccc1 [Example 7, 9-(4-Chlorophenoxy)-3,3-difluoro-1-phenyl-5-nonyn-4-one]
ED50: 3 mg/kg

COc1cccc2c1cc([N+](=O)[O-])c1c(C(=O)O)cc3c(c12)OCO3 [Aristolochic Acid, reference compound]
ED50 at +10 min. (p.o., standard drugs): Not Active

C[C@@H]1C[C@H]2[C@@H]3CCC4=CC(=O)C=C[C@]4(C)[C@@]3(F)[C@@H](O)C[C@]2(C)[C@@]1(O)C(=O)CO [Dexamethasone, reference compound]
ED50 at +10 min. (p.o. 3 hr, standard drug): 10 mg/kg

O=C(C#CCCCOc1ccc(F)cc1)C(F)(F)F [Example 3, 1,1,1-Trifluoro-7-(4-fluorophenoxy)-3-heptyn-2-one]
ED50: 30 mg/kg

Luffarrellolide [reference compound]
ED50 at +10 min. (p.o., standard drugs): Not Active

CC(C)(C)c1ccc(OCCCC#CC(=O)C(F)(F)F)cc1 [Example 4, 7-[4-(1,1-Dimethylethyl)phenoxy]-1,1,1-trifluoro-3-heptyn-2-one]
% Change in Edema 10 min (30 mg/kg i.p.): -45%

O=C(C#CCCCOc1ccc(Cl)cc1)C(F)(F)F [Example 1, 7-(4-Chlorophenoxy)-1,1,1-trifluoro-3-heptyn-2-one]
% Change in Edema 10 min (10 mg/kg i.v.): -64% | % Change in Edema 30 min (10 mg/kg i.v.): -34% | % Change in Edema 60 min (10 mg/kg i.v.): -39% | % Change in Edema 10 min (100 mg/kg p.o.): -26% | % Change in Edema 30 min (100 mg/kg p.o.): -37% | % Change in Edema 60 min (100 mg/kg p.o.): -23% | ED50: 3 mg/kg

COc1ccc2cc([C@H](C)C(=O)O)ccc2c1 [Naproxen, reference compound]
ED50 at +10 min. (p.o., standard drugs): 18 mg/kg

O=C(C#CCCCn1c2ccccc2c2ccccc21)C(F)(F)F [Example 2, 7-(9H-Carbazol-9-yl)-1,1,1-trifluoro-3-heptyn-2-one]
ED50: 1 mg/kg
